Here are results for two substances from publication doi:10.1101/2025.09.29.679234, “Engineered antimicrobial-derived peptides to manipulate mixed microbial systems” (bioRxiv, 2025).

Data set [1] relates to L. seeligeri. Briefly: Cell-binding assay by flow cytometry. The arrangement: species or system Listeria seeligeri. As for the experimental part: (§1) The binding affinity and avidity of pediocin to various Gram-positive and Gram-negative bacteria were studied using flow cytometry. Late log-phase cells were washed in the sodium phosphate buffer (5 mM, pH 6.0) and resuspended at an OD600 of 10^–3 in sodium-acetate buffer (25 mM, pH 4.0), sodium phosphate buffer (5 mM, pH 6.0) or sodium phosphate buffer (5mM, pH 7.4) containing 1 % BSA (bovine serum albumin) and 100 mM NaCl. Cells were incubated with varying concentrations of the conjugated peptide at 4 °C for 30 min. The unbound peptide was removed by centrifugation, and the pellet was resuspended in their respective binding containing 1 % BSA. Flow cytometry was performed on an Attune NxT flow cytometer (Life Technologies/ThermoFisher Scientific, Carlsbad, CA). Data (≥10^4 events were recorded) was recorded using a […] (488 nm) voltage of 360 V, gating was performed on SSC-A versus SSC-H plot to reduce false events.

The subject of another data set is E. faecium. As to the kind of experiment: Cell-binding assay by flow cytometry. The arrangement: species or system Enterococcus faecium. The following applies: pH 6.0. As for the experimental part: as §1
Data set [2] deals with L. seeligeri in a 5 species synthetic community. Briefly: Depletion by FACS of FITC-labelled cells in the mixed community (16S V3-V4 amplicon sequencing of the fluorescence-negative population). It counts as cell-based, Listeria seeligeri. The following applies: 40 μM of Ped-FITC printed in method, 4 °C 30 min, pH 6.0, 1 % BSA, 100 mM NaCl. The source says:
We posited that pediocin PA-1 characterized here could be a potential tool to modulate the abundance of specific species in an intact microbial community. To this end, we pursued two approaches: 1) using synthetic pediocin PA-1 to deplete specific species by killing and 2) using FITC-conjugated pediocin PA-1 to deplete specific species by cell sorting. To deplete L. seeligeri by killing, we created a synthetic community of L. casei, L. plantarum L. cremoris, E. faecium, and L. seeligeri and grew it for 2 h. We then split the culture into 3 parts to which we added 1 μM, 10 μM, or 0 (control) unmodified pediocin PA-1 (Lifetein), respectively. We observed that after 4 h, the proportion of L. seeligeri in the control (untreated) increased from 18 % to 60 %. […] Next, we assessed the ability of FITC-conjugated pediocin (Ped-FITC) and its 15-mer version to deplete the target species through cell sorting. Again, we created a synthetic community containing L. seeligeri in abundance and assessed the proportion before and after FACS of FITC labeled cells. We attempted to sequence the fluorescence-positive population but were unsuccessful due to poor DNA yield. However, the genomic DNA isolated from the fluorescence-negative population indicated depletion of more than 50 % in the proportion of L. seeligeri from the synthetic community (Figure 4B). […]

In data set [3] the test system is L. coryniformis. As to the kind of experiment: Kill curve (growth at 600 nm after 24 h). It counts as cell-based, Lactobacillus coryniformis. To be noted: Figure 1C, start OD600 0.05, 96-well plate, 3 pM to 3 μM, 10-fold serial dilutions. As for the experimental part: (§2) To determine the potency of the purified pediocin PA-1, we generated kill-curves against a range of target bacteria (Figure 1B). The concentration range tested was 3 pM to 3 μM following 10-fold serial dilutions. […] This is in approximate agreement with the published potency of pediocin PA-1 [28] . Though the molecular mass of pediocin PA-1 is expected to be 4.5 kDa, we observed the partially purified peptide to migrate with an apparent mass of ~12.5 kDa (Figure 1B). However, subsequent analysis by LC-MS yielded peaks of multiple m/z with the predominant peak at the expected molecular size of 4.6 kDa (Figure S4). The purified pediocin PA-1, separated on denaturing but non-reducing SDS-PAGE (since this bacteriocin contains two crucial disulfide bonds), was subjected to agar-overlay assay using L. seeligeri as indicator organism (Figure S5).
(§3) The antimicrobial spectrum of pediocin PA-1 was assayed using a kill curve. Cultures grown overnight were resuspended in fresh medium at an OD600 of 0.05. EC50 was determined by incubating cells with varying concentrations of pediocin in a 96-well plate, and growth was measured at 600 nm after 24 h.

In another data set the test system is L. casei. Briefly: Cell-binding assay by flow cytometry. The arrangement: species or system Lacticaseibacillus casei. The following applies: Table S1. As for the experimental part: as §1
Data set [4] is classed as physicochemical. An excerpt: We then proceeded to clone the pediocin operon from P. acidilactici UL5 into pSIP-P27 vector for heterologous expression in other lactic acid bacteria viz. Lactiplantibacillus plantarum WCFS1, Lactococcus cremoris MG1363 and the well-established expression host, E. coli MG1655. The pediocin operon imparted anti-listerial activity to the L. plantarum culture supernatant but not to that of L. cremoris or E. coli (Figure 1A). Based on the degree of bioactivity, we concluded that the level of recombinant pediocin PA-1 accumulated in L. plantarum culture was […] that observed for P. acidilactici UL5 and was therefore not pursued further. Thus, for subsequent studies, we isolated pediocin PA-1 from P. acidilactici UL5 directly using the cell adsorption-desorption approach (Figure S2). […] We attempted to further purify the preparation using reverse phase HPLC with minimal enhancement in purity but a significant loss in yield (Figure S3). The peptide recovered after cell adsorption-desorption and dialysis was lyophilized for long-term storage to minimize any loss in activity. The peptide using this method was purified 189-fold with specific activity of 9,434 AU·mg^−1 as measured by agar-well diffusion method (Figure 1B, Figure S2A–C).

In a further data set the test system is B. subtilis. As to the kind of experiment: Cell-binding assay by flow cytometry. Further details: species or system Bacillus subtilis. The method, then:
as §1

The next data set concerns L. cremoris. As to the kind of experiment: Cell-binding assay by flow cytometry. The arrangement: species or system Lactococcus cremoris. The following applies: Table S1, organism printed as L. lactis. As for the experimental part:
as §1

For data set [5], the system named is L. coryniformis. Briefly: Cell-binding assay by flow cytometry. The arrangement: species or system Lactobacillus coryniformis. The method, then:
as §1

For data set [6], the system named is L. seeligeri. It counts as cell-based, Listeria seeligeri. To be noted: Figure 1C; start OD600 0.05, 96-well plate, growth at 600 nm after 24 h; 3 pM to 3 μM, 10-fold serial dilutions; read-out: EC50 (kill-curve). The method, then: as §2, §3
Figure S7. Growth inhibition of L. seeligeri by modified and unmodified pediocin PA-1.

The subject of the next data set is indicator strains. As to the kind of experiment: Agar-well diffusion assay, specific activity of the purified peptide. To be noted: agar-well diffusion method; peptide after cell adsorption-desorption and dialysis, purified 189-fold. It counts as cell-based. The method, then:
Pediocin PA-1 is known to display narrow-spectrum activity against only a few species that include Lactobacillus coryniformis B-4390 and various Listeria species. We re-tested the antimicrobial spectrum of the pediocin PA-1 producer strain, Pediococcus acidilactici UL5, using agar-well diffusion assays against a few representative members of lactic acid bacteria (LAB) and Gram-negative, E. coli DH5α as a control (Figure S1). The effectiveness of the spent cell-free culture medium was evaluated by its ability to inhibit growth of the indicator strains as measured by zone of inhibition (ZOI). […] Therefore, we conclude that the primary antimicrobial secreted by P. acidilactici UL5 was pediocin PA-1.
We then proceeded to clone the pediocin operon from P. acidilactici UL5 into pSIP-P27 vector for heterologous expression in other lactic acid bacteria viz. Lactiplantibacillus plantarum WCFS1, Lactococcus cremoris MG1363 and the well-established expression host, E. coli MG1655. The pediocin operon imparted anti-listerial activity to the L. plantarum culture supernatant but not to that of L. cremoris or E. coli (Figure 1A). […] The peptide using this method was purified 189-fold with specific activity of 9,434 AU·mg^−1 as measured by agar-well diffusion method (Figure 1B, Figure S2A–C). […]

Another data set concerns E. coli. As to the kind of experiment: Cell-binding assay by flow cytometry. To be noted: Table S1. As for the experimental part: as §1
The mark [7] stands for this setting: signal did not saturate, read-out: Apparent KD.
The mark [8] stands for this setting: Table S1, maximum mean fluorescence intensity.
Where [9] appears, read: flow cytometry, Atto488 conjugate up to 2 μM, 4 °C 30 min, 1 % BSA, 100 mM NaCl, Hill fit, read-out: Apparent KD.

Marks after values point to notes of the source that are not given here. No end group written: not given here. Bounds are passed on as bounds.

As to “15-mer-FITC: FITC-conjugated 15-mer (K20-A34) fragment of pediocin PA-1 (KATTCIINNGAMAWA; also: FITC-conjugated, site not given here; UniProt P29430 38-52, looked up, fragment)”, the “binding at the tested pHs (in words)” value with L. seeligeri [1] (pH 4.0, 6.0 and 7.4, Figure S10) is given as “pH-dependent binding”. The Kd in the data set with L. seeligeri [1] (pH 6.0 sodium phosphate 5 mM, 1 % BSA, 100 mM NaCl, 4 °C 30 min, read-out: apparent KD) turned out to be 2.8 ± 0.3 µM. For the same substance, in the data set on E. faecium, the “binding (in words)” value was “modest binding”. Also, the “depletion in the proportion of L. seeligeri (fluorescence-negative population after FACS)” value in data set [2] is listed as “more than 50%”.

With “biosynthetic pediocin PA-1: class IIa bacteriocin partially purified from P. acidilactici UL5 by cell adsorption-desorption (KYYGNGVTCGKHSCSVDWGKATTCIINNGAMAWATGGHQGNHKC; UniProt P29430 19-62, looked up)”, the EC50 in the data set with L. coryniformis [3] was roughly 0.001 µM; in the data set on L. seeligeri [6], roughly 0.0133 µM. For the same substance, the Hill co-efficient in the data set on L. casei is 0.7; with B. subtilis (Table S1, Hill fit), 0.9; in the data set with L. cremoris, 0.7; in the data set on L. coryniformis [5] (Table S1, fit MFI = MFImax[S]^n/(KD^n+[S]^n)) it was 1.4; in the data set with E. coli, 0.9. For the same substance, the figures for the “MFImax (×10^3)” value in the data set with L. casei (signal did not saturate), with B. subtilis (setting [8]) and with L. coryniformis [5] (setting [8]) were >2* ×10^3, 7 ± 1 ×10^3 and 6.3 ± 0.3 ×10^3, respectively. For the same substance, the Kd in the data set on L. casei (setting [7]) is greater than 2 µM; in the data set on B. subtilis (setting [9]), 0.467 ± 0.167 µM; in the data set on L. cremoris (setting [7]), greater than 2 µM; with L. coryniformis [5] (setting [9]), 0.046 ± 0.008 µM; with E. coli (setting [7]), greater than 2 µM. In [4], the “stability of recovered peptide (in words)” value is recorded as “the peptide recovered at the acidic pH was found to be more stable”. The specific activity in the data set on indicator strains was 9,434 AU·mg^−1.
